Earlier results in US10603330B2, “Arginase inhibitors as therapeutics” (Mars, Incorporated, priority 2010, dated 2020).

Legend:
EAE = settings: animals undergoing experimental autoimmune encephalomyelitis
[1] = test system: bacterial arginase (H. pylori); settings: inhibition of bacterial arginase
[2] = test system: central airways responsiveness; settings: murine chronic asthma model
blood pressure = settings: spontaneously hypertensive animals

## NC(CCCCB(O)O)C(=O)O (stereo not shown) [ABH, amino-6-boronohexanoic acid]
EAE
  severity of EAE vs control animals: much milder form of EAE

## NC(=NCCC[C@H](N)C(=O)O)NO [NOHA]
[1]
  CD3 expression on T-cells: reestablished CD3 expression on T-cells

## N[C@@H](CSCCB(O)O)C(=O)O [S-(2-boronoethyl)-L-cysteine]
[2]
  methacholine induced responsiveness of the central airways: attenuated

## N=C(NO)NCC[C@H](N)C(=O)O [nor-NOHA, N^ω-hydroxy-nor-L-arginine]
Blood pressure
  blood pressure: lowered blood pressure
